One block for each sequence: values may come before it.
What was measured:
ALK [1] = target: T1, ALK (Homo sapiens, UniProt Q9UM73); experiment: LIMS-kinase assay kinetic analysis (Km), ALK; type: biochemical; conditions: MS signal of ADP fragment, ATP 100 μM, peptide from 300–400 μM, 2- or 3-fold dilutions, 25°C, Michaelis-Menten fit, repeated twice
T1 construct: purchased Carna Biosciences 08–518
Source text: (§1) Figures 3A and 3B illustrate the schematic of a kinase assay reaction and the multiple reaction monitoring (MRM) phosphorylation detection system employed in the LIMS-kinase assay. The MRM setup comprises a RapidFire liquid chromatography sampler (Agilent) coupled to a triple quadrupole mass spectrometer (AB Sciex 6500). Quadrupole 1 (Q1) acts as a mass filter, selecting precursor ions based on their mass-to-charge ratios. Q2 functions as a collision cell, fragmenting these precursor ions into product ions. Q3 serves as an additional mass filter, specifically monitoring desired product ion fragments originating from the Q1-selected parent ion (Figure 3B).
To determine kinase activity, we directly measured ADP production by following specific ADP ion fragments rather than quantifying phosphorylated peptide fragments as in our original published LIMS-kinase assay. […] We evaluated two enzyme concentrations with the objective of selecting the concentration where activity was linear to 60 minutes with a strong signal (Figure S5). […]
(§2) Final working concentrations of enzyme varied by kinase. […] Activity was evaluated by measuring MS signal of ADP-specific fragment ion. Experiments were repeated twice, with results expressed as mean ± standard deviation.
(§3) Km was evaluated by linear regression of the first three time-points at each concentration of peptide. […]

[2] = Peptide solubility observed in Km study; type: physicochemical; conditions: observation in the Km study with EGFR L858R; peptide concentrations started at 300–400 μM
Source text: We ran LIMS-kinase assays using a range of peptide concentrations. We plotted the initial reaction rate for each concentration to generate Michaelis-Menten curves. […] We could not run a successful Km study with EGFR L858R due to the insolubility of the parental MS-csktide1 peptide at high concentrations, similar to our previous observation.

MET [3] = target: T2, MET (Homo sapiens, UniProt P08581); experiment: ADP-Glo kinase assay, MET; type: biochemical; conditions: ADP-Glo luminescence; vs parent EEPLYWSFPAK; enzyme 1.25–10 nM, ATP 10 μM, peptide 1 μM, 90 min, 25°C; repeated twice, mean
T2 construct: purchased Carna Biosciences 08–151
T2 sequence (P08581 25-1390): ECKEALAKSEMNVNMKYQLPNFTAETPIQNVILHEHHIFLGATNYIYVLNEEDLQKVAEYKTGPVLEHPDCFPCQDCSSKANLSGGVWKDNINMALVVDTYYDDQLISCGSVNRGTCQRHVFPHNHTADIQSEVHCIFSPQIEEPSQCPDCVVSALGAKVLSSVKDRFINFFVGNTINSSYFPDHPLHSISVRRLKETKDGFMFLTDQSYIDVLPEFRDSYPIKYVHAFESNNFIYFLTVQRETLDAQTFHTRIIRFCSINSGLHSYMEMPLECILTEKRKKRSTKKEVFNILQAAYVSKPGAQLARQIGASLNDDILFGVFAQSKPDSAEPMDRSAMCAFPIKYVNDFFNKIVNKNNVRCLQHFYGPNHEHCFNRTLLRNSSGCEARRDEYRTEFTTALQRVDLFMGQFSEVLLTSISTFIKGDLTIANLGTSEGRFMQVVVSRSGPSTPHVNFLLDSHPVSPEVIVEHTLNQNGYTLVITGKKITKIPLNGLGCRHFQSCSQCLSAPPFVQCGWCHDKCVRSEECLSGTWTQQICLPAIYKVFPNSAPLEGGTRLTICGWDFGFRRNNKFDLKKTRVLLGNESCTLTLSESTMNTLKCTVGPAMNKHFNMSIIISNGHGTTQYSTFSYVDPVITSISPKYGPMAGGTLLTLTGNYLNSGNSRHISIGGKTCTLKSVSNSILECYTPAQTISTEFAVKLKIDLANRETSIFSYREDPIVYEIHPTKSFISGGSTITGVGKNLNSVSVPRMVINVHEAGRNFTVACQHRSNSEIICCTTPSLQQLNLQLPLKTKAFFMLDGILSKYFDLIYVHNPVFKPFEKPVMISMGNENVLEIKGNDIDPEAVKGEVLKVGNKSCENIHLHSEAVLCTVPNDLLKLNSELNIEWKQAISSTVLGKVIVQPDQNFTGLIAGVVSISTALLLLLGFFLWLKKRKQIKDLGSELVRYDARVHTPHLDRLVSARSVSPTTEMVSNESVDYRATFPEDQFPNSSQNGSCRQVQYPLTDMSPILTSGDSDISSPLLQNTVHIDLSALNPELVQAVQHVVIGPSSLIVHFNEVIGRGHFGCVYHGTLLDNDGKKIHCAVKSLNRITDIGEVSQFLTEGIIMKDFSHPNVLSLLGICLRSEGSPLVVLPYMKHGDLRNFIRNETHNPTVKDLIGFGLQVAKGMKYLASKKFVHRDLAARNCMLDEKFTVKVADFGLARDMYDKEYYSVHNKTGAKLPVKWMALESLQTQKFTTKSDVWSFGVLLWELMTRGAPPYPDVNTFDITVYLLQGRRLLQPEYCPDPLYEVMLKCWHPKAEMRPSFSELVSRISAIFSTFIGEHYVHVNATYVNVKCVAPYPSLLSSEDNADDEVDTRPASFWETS
Source text: (§4) To experimentally evaluate the computationally optimized peptide sequences, we chose five kinases based on commercial availability. Using the ipAE, pLDDT, and ipTM scores, we ranked the Subtimizer-designed sequences, and for each kinase we selected two to five peptides for synthesis and experimental testing. We evaluated the activity of the peptides using the ADP-Glo kinase assay, a luminescence-based method that quantifies ADP production as a measure of kinase activity. First, we measured the ADP-Glo signals for the parental peptide and the baseline (no enzyme background) for the five kinases. […] The varying signal intensities across different kinases reflect differences in their specific activities and the efficiency of the parent peptide substrates.
(§5) ADP-Glo Kit (ADP-Glo™ Kinase Assay, Cat#V6930) was obtained from Promega. The kinases ALK (#08–518), MET (#08–151), ROS1 (#08–163), and EGFR L858R (#08–502) were products of Carna Biosciences. SRC was expressed and purified as previously reported. Substrate peptides were obtained from Biomatik Corporation (Wilmington, DE, USA). All components were equilibrated to 25°C prior to setting up reactions in 384-well microplates (White ProxiPlate 384-shallow well Plus). […] Experiments were repeated twice with results expressed as mean ± standard deviation. Luminescence was detected on a Synergy Neo2 plate reader.

EGFR L858R = experiment: ADP-Glo kinase assay, EGFR L858R; type: biochemical; conditions: ADP-Glo luminescence; vs parent KEEIYFFF; enzyme 1.25–10 nM, ATP 10 μM, peptide 1 μM, 90 min, 25°C; repeated twice, mean
Source text: as §4, §5

ALK [4] = target: T1, ALK; experiment: ADP-Glo kinase assay, ALK; type: biochemical; conditions: ADP-Glo luminescence; vs parent KSRGDYMTMQIG (axltide); enzyme 1.25–10 nM, ATP 10 μM, peptide 1 μM, 90 min, 25°C; repeated twice, mean
Source text: as §4, §5

MET [5] = target: T2, MET; experiment: Peptide selectivity assay (LIMS-kinase), MET; type: biochemical; conditions: LIMS-kinase ADP production; MET 5 nM, peptides 134 μM, ATP 100 μM, 30 min, room temperature; repeated twice
Procedure: (§6) All components equilibrated to 25°C prior to setting up reactions. All reagents added manually. Peptides added to 384-well microplates (Costar 3657 round bottom polypropylene). A pre-mixed buffer, enzyme, and ATP solution was added to initiate reaction. Reaction was quenched with 1% formic acid (final) following 30-minute incubation at room temperature. Kinase activity was evaluated by measuring MS signal of ADP-specific fragment ion. Experiments were repeated twice, with results expressed as mean ± standard deviation. Time 0 (background) values were subtracted from subsequent time-points.
(§7) RapidFire liquid chromatography and mass spectrometry methods were performed as previously described.

ROS1 [6] = target: T3, ROS1 (Homo sapiens, UniProt P08922); experiment: LIMS-kinase assay kinetic analysis (Km), ROS1; type: biochemical; conditions: for Km: LIMS-kinase, MS signal of ADP fragment, ATP 100 μM, peptide from 300–400 μM, 2- or 3-fold dilutions, 25°C, Michaelis-Menten fit, repeated twice
T3 construct: purchased Carna Biosciences 08–163
T3 sequence (P08922 28-2347): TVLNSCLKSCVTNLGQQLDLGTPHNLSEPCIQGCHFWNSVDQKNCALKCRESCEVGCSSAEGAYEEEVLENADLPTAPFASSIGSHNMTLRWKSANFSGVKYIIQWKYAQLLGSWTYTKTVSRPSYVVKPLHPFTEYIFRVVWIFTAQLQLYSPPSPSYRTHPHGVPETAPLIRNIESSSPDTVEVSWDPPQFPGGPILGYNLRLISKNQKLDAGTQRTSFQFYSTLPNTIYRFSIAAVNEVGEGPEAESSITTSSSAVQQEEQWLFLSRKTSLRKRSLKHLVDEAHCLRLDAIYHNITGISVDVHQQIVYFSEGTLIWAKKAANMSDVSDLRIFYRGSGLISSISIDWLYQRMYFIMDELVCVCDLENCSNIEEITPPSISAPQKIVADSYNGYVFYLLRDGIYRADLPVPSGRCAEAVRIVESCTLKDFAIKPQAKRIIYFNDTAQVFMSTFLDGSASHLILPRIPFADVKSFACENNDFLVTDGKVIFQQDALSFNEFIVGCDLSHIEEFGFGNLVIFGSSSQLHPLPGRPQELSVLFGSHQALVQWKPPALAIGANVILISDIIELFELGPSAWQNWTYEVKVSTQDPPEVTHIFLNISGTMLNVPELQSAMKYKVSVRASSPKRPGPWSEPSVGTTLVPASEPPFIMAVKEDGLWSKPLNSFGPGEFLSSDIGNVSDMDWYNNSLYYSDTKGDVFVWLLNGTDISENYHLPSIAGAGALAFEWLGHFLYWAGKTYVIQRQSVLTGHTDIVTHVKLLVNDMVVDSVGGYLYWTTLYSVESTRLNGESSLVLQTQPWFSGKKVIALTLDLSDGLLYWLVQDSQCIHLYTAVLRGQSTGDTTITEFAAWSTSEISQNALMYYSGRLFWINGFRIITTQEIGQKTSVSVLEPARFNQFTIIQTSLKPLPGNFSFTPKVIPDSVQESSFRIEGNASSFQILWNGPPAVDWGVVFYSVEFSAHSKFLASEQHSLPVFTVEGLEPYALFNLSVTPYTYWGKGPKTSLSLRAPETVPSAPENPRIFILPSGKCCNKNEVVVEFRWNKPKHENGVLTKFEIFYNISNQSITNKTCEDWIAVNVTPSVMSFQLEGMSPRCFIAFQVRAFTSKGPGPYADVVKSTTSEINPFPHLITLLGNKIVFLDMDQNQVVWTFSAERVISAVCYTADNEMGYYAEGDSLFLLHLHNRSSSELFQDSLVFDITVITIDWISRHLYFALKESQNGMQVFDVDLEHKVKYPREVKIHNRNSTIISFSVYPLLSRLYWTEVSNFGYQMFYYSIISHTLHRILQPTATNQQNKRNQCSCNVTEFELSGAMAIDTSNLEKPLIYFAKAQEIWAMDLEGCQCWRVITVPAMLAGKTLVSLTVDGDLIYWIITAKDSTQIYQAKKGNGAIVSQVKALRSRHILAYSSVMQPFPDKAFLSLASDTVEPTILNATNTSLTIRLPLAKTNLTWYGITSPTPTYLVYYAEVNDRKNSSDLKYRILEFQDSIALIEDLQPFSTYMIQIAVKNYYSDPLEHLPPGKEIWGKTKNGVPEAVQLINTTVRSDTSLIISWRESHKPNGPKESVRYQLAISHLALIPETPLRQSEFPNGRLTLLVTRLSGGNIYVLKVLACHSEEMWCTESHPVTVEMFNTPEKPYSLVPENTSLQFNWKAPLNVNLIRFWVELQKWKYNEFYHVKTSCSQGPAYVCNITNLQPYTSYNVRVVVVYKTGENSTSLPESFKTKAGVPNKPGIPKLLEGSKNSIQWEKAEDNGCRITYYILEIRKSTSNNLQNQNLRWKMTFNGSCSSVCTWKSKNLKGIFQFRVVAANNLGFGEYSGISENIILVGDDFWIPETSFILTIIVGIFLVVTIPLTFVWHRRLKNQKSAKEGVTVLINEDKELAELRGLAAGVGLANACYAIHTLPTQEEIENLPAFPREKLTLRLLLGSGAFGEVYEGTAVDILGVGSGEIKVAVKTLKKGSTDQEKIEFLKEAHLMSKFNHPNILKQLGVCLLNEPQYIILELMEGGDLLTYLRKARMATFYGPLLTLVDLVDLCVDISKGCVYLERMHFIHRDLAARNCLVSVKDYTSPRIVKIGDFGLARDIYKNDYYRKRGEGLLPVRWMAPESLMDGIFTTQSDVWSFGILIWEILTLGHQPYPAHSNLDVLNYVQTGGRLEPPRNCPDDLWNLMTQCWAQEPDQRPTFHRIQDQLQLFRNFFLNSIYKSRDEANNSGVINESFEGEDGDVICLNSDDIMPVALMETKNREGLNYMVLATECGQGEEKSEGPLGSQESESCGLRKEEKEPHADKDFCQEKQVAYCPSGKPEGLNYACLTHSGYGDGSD
Source text: as §1
(§8) To determine kinase activity, we directly measured ADP production by following specific ADP ion fragments rather than quantifying phosphorylated peptide fragments as in our original published LIMS-kinase assay. We chose to measure ADP production rather than the phosphorylated peptide product to avoid potential variations in ionization efficiency or fragmentation patterns that can arise from differences in amino acid sequences and physicochemical properties of different peptide substrates. This ensures not only a more direct and unbiased comparison of potency across different peptides, but also broad applicability of optimized substrates across different assay platforms. Initial tests confirmed that we were able to selectively detect an ADP fragment in kinase/peptide reactions (Figure S5). The ADP signal was enzyme concentration- and time-dependent, consistent with the expected response of a functional assay. […] We evaluated two enzyme concentrations with the objective of selecting the concentration where activity was linear to 60 minutes with a strong signal (Figure S5). […]
as §2, §3

ROS1 [7] = target: T3, ROS1; experiment: ADP-Glo kinase assay, ROS1; type: biochemical; conditions: ADP-Glo luminescence; vs parent EEPLYWSFPAK; enzyme 1.25–10 nM, ATP 10 μM, peptide 1 μM, 90 min, 25°C; repeated twice, mean
Source text: as §4, §5

ROS1 [8] = target: T3, ROS1; experiment: Peptide selectivity assay (LIMS-kinase), ROS1; type: biochemical; conditions: LIMS-kinase ADP production; ROS1 0.63 nM, peptides 20.3 μM, ATP 100 μM, 30 min, room temperature; repeated twice
Procedure: as §6, §7

MET [9] = target: T2, MET; experiment: LIMS-kinase assay kinetic analysis (Km), MET; type: biochemical; conditions: for Km: LIMS-kinase, MS signal of ADP fragment, ATP 100 μM, peptide from 300–400 μM, 2- or 3-fold dilutions, 25°C, Michaelis-Menten fit, repeated twice
Source text: as §1, §8, §2, §3

Sequence: KSRGDYMTMQIG [MS-axltide, parental peptide substrate … used for ALK, reference compound]
- Km (ALK [1]): 18.4 µM

Sequence: KEEIYFFF [MS-csktide1, parental peptide substrate KEEIYFFF used for EGFR L858R]
- solubility at high concentrations [2]: insolubility

Sequence: EEPLYVALPAP [met-s2, designed MET peptide substrate …]
- relative percentage change (increase) in kinase activity compared to parent peptide (MET [3]): ~11%

Sequence: EPEGYAPL [egfr-s2]
- relative percentage change (increase) in kinase activity compared to parent peptide (EGFR L858R): approximately 5%

Sequence: EPEDYAPV [egfr-s1, designed EGFR L858R peptide substrate EPEDYAPV]
- relative percentage change (increase) in kinase activity compared to parent peptide (EGFR L858R): about 10%

Sequence: PDPDDYMLMEIG [alk-s4, designed ALK peptide substrate …]
- relative percentage change (increase) in kinase activity compared to parent peptide (ALK [4]): 130%

Sequence: EEPLYWSFPAK [MS-srctide, parental peptide substrate … for many kinases including MET and ROS1, reference compound]
- Km (MET [9]): 288 µM
- Km (ROS1 [6]): 47.6 µM

The remaining lines, values ahead:

- reduction in MET kinase activity compared to met-s1 (MET [5]): over 4 fold
- Km (ROS1 [6]): 20.3 µM
- improvement in apparent binding affinity (Km) vs parental MS-srctide (ROS1 [6]; ROS1, Km 47.59 to 20.30 µM): > 2 fold
- relative percentage change (increase) in kinase activity compared to parent peptide (ROS1 [7]): about 35%
Sequence: KEPFYMRLKPK [ros1-s2]

- reduction in ROS1 kinase activity compared to ros1-s2 (ROS1 [8]): over 11 fold
- Km (MET [9]): 134 µM
- reduction in Km vs parental MS-srctide (MET [9]; MET, Km 288 to 134 µM): over 2 fold
- relative percentage change (increase) in kinase activity compared to parent peptide (MET [3]): approximately 41%
Sequence: EEPAYVALPAK [met-s1]

- relative percentage change (increase) in kinase activity compared to parent peptide (ALK [4]): 146%
Sequence: HSPEDYMWVEME [alk-s5, designed ALK peptide substrate …]

- Km (ALK [1]): 14.1 µM
Sequence: HDPEDYMWVEMR [alk-s3, designed ALK peptide substrate …]
